From patent US12679878B2, “CRF2 receptor agonists and their use in therapy” (SANOFI, priority 2020, dated 2026)
Starred links: 1 amine or outer side, 2 acyl side, 3 side chain; linkers in the order of their positions; H or OH if unused. Non-standard residues stand in square brackets, D forms with d. Residues, ends and D or L forms follow the SMILES beside them. Groups on a side chain read outwards from the residue. *: point of attachment. C18 diacid = O=C(O)CCCCCCCCCCCCCCCCC(=O)*; γGlu = O=C(O)[C@H](CCC(=O)[*:2])N[*:1]; AEEA = NCCOCCOCC(=O)O; Aib = CC(C)(N)C(=O)O

Experiment: Effect on blood pressure, telemetry (Example 17)
Format: in vivo
Settings: Sprague Dawley rats, 0.1 mg/kg SC
Protocol: The effect of the compounds on blood pressure was determined in telemetry studies in Sprague Dawley rats at a dosage of 0.1 mg/kg SC.
The rats were previously implanted with a telemetry device (DSI, Saint-Paul, USA, HD-S10, HD-S11 or HD S21) and allowed to recover for a minimum period of 2 weeks before treatment with vehicle or the different peptides. Blood pressure (BP) was recorded through a catheter inserted into the abdominal aorta. The device body was placed in the abdomen. At the end of surgery, animals were placed in individual cages until the end of the study.
Pressure signals were recorded for one hour before the treatment (basal period). Thereafter, the subcutaneous administration of the test compound or its vehicle was performed, under continuous recording of the signal over a 48-hour period. Data acquisition was performed using Hem 4.3 acquisition software (Notocord®, Le Pecq, France) connected to the telemetry device. Hemodynamic parameters were recorded during a […] before treatment and every 4-hour period following subcutaneous administration over 48 hours.
Investigated parameters (calculated from BP signal) were Heart Rate (HR) in beats per minute (bpm), Diastolic and Systolic Blood Pressure (DBP) in mmHg, and Mean Blood Pressure (MBP) in mmHg.
Data from Hem were manipulated using Microsoft Excel®. For each parameter, a basal value was determined as the average calculated over a 1-hour period during the pre-treatment sequence, and the values post treatment were calculated over 4-hour periods ([0-4], [4-8], [8-12], [12-16], [16-20], [20-24], [24-28], [32-36], [36-40], [40-44] and [44-48] hours) covering the 48-hour period following administration.
Representative data are presented in Table 15 below, in which “n” represents the number of animals for which individual values were obtained and “Duration” indicates the last time point for which a significant effect on BP was still seen: Table 15

## CC[C@H](C)[C@H](N)C(=O)N[C@H](C(=O)N[C@@H](CC(C)C)C(=O)N[C@@H](CO)C(=O)N[C@@H](CC(C)C)C(=O)N[C@@H](CC(=O)O)C(=O)N[C@@H](C(=O)N1CCC[C@H]1C(=O)N[C@H](C(=O)N[C@@H](CCCCN)C(=O)N[C@@H](CC(C)C)C(=O)N[C@@H](CCCCNC(=O)COCCOCCNC(=O)COCCOCCNC(=O)CC[C@H](NC(=O)CCCCCCCCCCCCCCCCC(=O)O)C(=O)O)C(=O)N[C@@H](CCC(N)=O)C(=O)N[C@H](C(=O)N[C@@H](CC(C)C)C(=O)N[C@@H](CC(C)C)C(=O)N[C@@H](CCCCN)C(=O)N[C@@H](CCC(N)=O)C(=O)N[C@@H](CCC(=O)O)C(=O)N[C@@H](CCCNC(=N)N)C(=O)N[C@@H](CCC(N)=O)C(=O)N[C@@H](CCCCN)C(=O)NC(C)(C)C(=O)N[C@@H](CCC(N)=O)C(=O)N[C@@H](CCCNC(=N)N)C(=O)N[C@@H](CCC(N)=O)C(=O)N[C@@H](CCC(N)=O)C(=O)N[C@@H](C)C(=O)N[C@@H](CCC(=O)O)C(=O)N[C@@H](CCCCN)C(=O)N[C@@H](CC(N)=O)C(=O)N[C@@H](CCCCN)C(=O)N[C@@H](CCC(N)=O)C(=O)N[C@H](C(=O)N[C@@H](CC(C)C)C(=O)N[C@@H](C)C(=O)N[C@@H](CCC(N)=O)C(=O)N[C@H](C(N)=O)C(C)C)[C@@H](C)CC)[C@@H](C)CC)[C@@H](C)CC)C(C)C)C(C)C [SEQ ID NO: 135, IVLSLDvPIKLK*QILLKQERQKAibQRQQAEKNKQILAQV-NH2] (H-IVLSLD[dV]PIKLK([AEEA-AEEA-γGlu-C18 diacid])QILLKQERQK[Aib]QRQQAEKNKQILAQV-NH2)
  Duration (h): last time point for which a significant effect on BP was still seen: 30 h
  Effect on Systolic Pressure % change from baseline 8 h: −8.8%
  Effect on Systolic Pressure % change from baseline 24 h: −4.8%

## CC[C@H](C)[C@H](N)C(=O)N[C@H](C(=O)N[C@@H](CC(C)C)C(=O)N[C@@H](CO)C(=O)N[C@@H](CC(C)C)C(=O)N[C@@H](CC(=O)O)C(=O)N[C@@H](C(=O)N1CCC[C@H]1C(=O)N[C@H](C(=O)N[C@@H](CCCCN)C(=O)N[C@@H](CC(C)C)C(=O)N[C@@H](CCCCNC(=O)COCCOCCNC(=O)COCCOCCNC(=O)CC[C@H](NC(=O)CCCCCCCCCCCCCCCCC(=O)O)C(=O)O)C(=O)N[C@@H](CCC(N)=O)C(=O)N[C@H](C(=O)N[C@@H](CC(C)C)C(=O)N[C@@H](CC(C)C)C(=O)N[C@@H](CCCCN)C(=O)N[C@@H](CCC(N)=O)C(=O)N[C@@H](CCC(=O)O)C(=O)N[C@@H](CCCNC(=N)N)C(=O)N[C@@H](CCC(N)=O)C(=O)N[C@@H](CCCCN)C(=O)N[C@@H](CCCCN)C(=O)N[C@@H](CCC(N)=O)C(=O)N[C@@H](CCCNC(=N)N)C(=O)N[C@@H](CCC(=O)O)C(=O)N[C@@H](CCC(N)=O)C(=O)N[C@@H](C)C(=O)N[C@@H](CCC(=O)O)C(=O)N[C@@H](CCCCN)C(=O)N[C@@H](CC(N)=O)C(=O)N[C@@H](CCCCN)C(=O)N[C@@H](CCC(N)=O)C(=O)N[C@H](C(=O)N[C@@H](CC(C)C)C(=O)N[C@@H](CCC(=O)O)C(=O)N[C@@H](CCC(N)=O)C(=O)N[C@H](C(N)=O)C(C)C)[C@@H](C)CC)[C@@H](C)CC)[C@@H](C)CC)C(C)C)C(C)C [SEQ ID NO: 137] (H-IVLSLD[dV]PIKLK([AEEA-AEEA-γGlu-C18 diacid])QILLKQERQKKQREQAEKNKQILEQV-NH2)
  Duration (h): last time point for which a significant effect on BP was still seen: 28 h
  Effect on Systolic Pressure % change from baseline 8 h: −15.9%
  Effect on Systolic Pressure % change from baseline 24 h: −6.5%

## CC[C@H](C)[C@H](N)C(=O)N[C@H](C(=O)N[C@@H](CC(C)C)C(=O)N[C@@H](CO)C(=O)N[C@@H](CC(C)C)C(=O)N[C@@H](CC(=O)O)C(=O)N[C@@H](C(=O)N1CCC[C@H]1C(=O)N[C@H](C(=O)N[C@@H](CCCCN)C(=O)N[C@@H](CC(C)C)C(=O)N[C@@H](CCCCNC(=O)COCCOCCNC(=O)COCCOCCNC(=O)CC[C@H](NC(=O)CCCCCCCCCCCCCCCCC(=O)O)C(=O)O)C(=O)N[C@@H](CCC(N)=O)C(=O)N[C@H](C(=O)N[C@@H](CC(C)C)C(=O)N[C@@H](CC(C)C)C(=O)N[C@@H](CCCCN)C(=O)N[C@@H](CCC(N)=O)C(=O)N[C@@H](CCC(=O)O)C(=O)N[C@@H](CCCNC(=N)N)C(=O)N[C@@H](CCC(N)=O)C(=O)N[C@@H](CCCCN)C(=O)N[C@@H](CCCCN)C(=O)N[C@@H](CCC(N)=O)C(=O)N[C@@H](CCCNC(=N)N)C(=O)N[C@@H](CCC(=O)O)C(=O)N[C@@H](CCCCN)C(=O)N[C@@H](C)C(=O)N[C@@H](CCC(=O)O)C(=O)N[C@@H](CCCCN)C(=O)N[C@@H](CC(N)=O)C(=O)N[C@@H](CCCCN)C(=O)N[C@@H](CCC(N)=O)C(=O)N[C@H](C(=O)N[C@@H](CC(C)C)C(=O)N[C@@H](C)C(=O)N[C@@H](CCC(N)=O)C(=O)N[C@H](C(N)=O)C(C)C)[C@@H](C)CC)[C@@H](C)CC)[C@@H](C)CC)C(C)C)C(C)C [SEQ ID NO: 138] (H-IVLSLD[dV]PIKLK([AEEA-AEEA-γGlu-C18 diacid])QILLKQERQKKQREKAEKNKQILAQV-NH2)
  Duration (h): last time point for which a significant effect on BP was still seen: 30 h
  Effect on Systolic Pressure % change from baseline 8 h: −6.1%
  Effect on Systolic Pressure % change from baseline 24 h: −3.6%

## CC[C@H](C)[C@H](N)C(=O)N[C@H](C(=O)N[C@@H](CC(C)C)C(=O)N[C@@H](CO)C(=O)N[C@@H](CC(C)C)C(=O)N[C@@H](CC(=O)O)C(=O)N[C@@H](C(=O)N1CCC[C@H]1C(=O)N[C@H](C(=O)N[C@@H](CCCCN)C(=O)N[C@@H](CC(C)C)C(=O)N[C@@H](CCCCNC(=O)COCCOCCNC(=O)COCCOCCNC(=O)CC[C@H](NC(=O)CCCCCCCCCCCCCCCCC(=O)O)C(=O)O)C(=O)N[C@@H](CCC(N)=O)C(=O)N[C@H](C(=O)N[C@@H](CC(C)C)C(=O)N[C@@H](CC(C)C)C(=O)N[C@@H](CCC(=O)O)C(=O)N[C@@H](CCC(N)=O)C(=O)N[C@@H](C)C(=O)N[C@@H](CCCNC(=N)N)C(=O)N[C@@H](CCC(N)=O)C(=O)N[C@@H](CCCCN)C(=O)NC(C)(C)C(=O)N[C@@H](CCC(N)=O)C(=O)N[C@@H](CCCNC(=N)N)C(=O)N[C@@H](C)C(=O)N[C@@H](CCC(N)=O)C(=O)N[C@@H](C)C(=O)N[C@@H](CCC(=O)O)C(=O)N[C@@H](CCCCN)C(=O)N[C@@H](CC(N)=O)C(=O)N[C@@H](CCCCN)C(=O)N[C@@H](CCCNC(=N)N)C(=O)N[C@H](C(=O)N[C@@H](CC(C)C)C(=O)N[C@@H](CCC(=O)O)C(=O)N[C@@H](CCCNC(=N)N)C(=O)N[C@H](C(N)=O)C(C)C)[C@@H](C)CC)[C@@H](C)CC)[C@@H](C)CC)C(C)C)C(C)C [SEQ ID NO: 140, IVLSLDvPIKLK*QILLEQARQKAibQRAQAEKNKRILERV-NH2] (H-IVLSLD[dV]PIKLK([AEEA-AEEA-γGlu-C18 diacid])QILLEQARQK[Aib]QRAQAEKNKRILERV-NH2)
  Duration (h): last time point for which a significant effect on BP was still seen: 32 h
  Effect on Systolic Pressure % change from baseline 8 h: −19.9%
  Effect on Systolic Pressure % change from baseline 24 h: −3.0%

## CC[C@H](C)[C@H](N)C(=O)N[C@H](C(=O)N[C@@H](CC(C)C)C(=O)N[C@@H](CO)C(=O)N[C@@H](CC(C)C)C(=O)N[C@@H](CC(=O)O)C(=O)N[C@@H](C(=O)N1CCC[C@H]1C(=O)N[C@H](C(=O)N[C@@H](CCCCN)C(=O)N[C@@H](CC(C)C)C(=O)N[C@@H](CCCCNC(=O)COCCOCCNC(=O)COCCOCCNC(=O)CC[C@H](NC(=O)CCCCCCCCCCCCCCCCC(=O)O)C(=O)O)C(=O)N[C@@H](CCC(N)=O)C(=O)N[C@H](C(=O)N[C@@H](CC(C)C)C(=O)N[C@@H](CC(C)C)C(=O)N[C@@H](CCCCN)C(=O)N[C@@H](CCC(N)=O)C(=O)N[C@@H](C)C(=O)N[C@@H](CCCNC(=N)N)C(=O)N[C@@H](CCC(N)=O)C(=O)N[C@@H](CCCCN)C(=O)NC(C)(C)C(=O)N[C@@H](CCC(N)=O)C(=O)N[C@@H](CCCNC(=N)N)C(=O)N[C@@H](C)C(=O)N[C@@H](CCC(N)=O)C(=O)N[C@@H](C)C(=O)N[C@@H](CCC(=O)O)C(=O)N[C@@H](CCCCN)C(=O)N[C@@H](CC(N)=O)C(=O)N[C@@H](CCCCN)C(=O)N[C@@H](CCCNC(=N)N)C(=O)N[C@H](C(=O)N[C@@H](CC(C)C)C(=O)N[C@@H](CCC(=O)O)C(=O)N[C@@H](CCCNC(=N)N)C(=O)N[C@H](C(N)=O)C(C)C)[C@@H](C)CC)[C@@H](C)CC)[C@@H](C)CC)C(C)C)C(C)C [SEQ ID NO: 141, IVLSLDvPIKLK*QILLKQARQKAibQRAQAEKNKRILERV-NH2] (H-IVLSLD[dV]PIKLK([AEEA-AEEA-γGlu-C18 diacid])QILLKQARQK[Aib]QRAQAEKNKRILERV-NH2)
  Duration (h): last time point for which a significant effect on BP was still seen: 24 h
  Effect on Systolic Pressure % change from baseline 8 h: −5.2%
  Effect on Systolic Pressure % change from baseline 24 h: −4.2%
